Laboratory results from patent US8852559B2 (Colgate-Palmolive Company, priority 2009, dated 2014).

Assays:
[1] = Stability of Compound 1 formulations with and without antioxidants; format: physicochemical
Text: The stability of three formulations of Compound 1 are compared, the formulations being identical except that one is without any antioxidants, one contains α-tocopherol, and the third contains sodium ascorbylphosphate.

[2] = Decomposition of Compound 1 in buffered vs unbuffered pH 7.2 formulation; format: physicochemical; conditions: phosphate buffered vs unbuffered formulation, pH 7.2, over 14 days
Experimental: Two pH 7.2 formulations of Compound 1 are prepared, one with phosphate buffer, one without, and the decomposition of Compound 1 is measured over 14 days. While measurable decomposition is seen in both formulations, the slope of the rate of decomposition Compound 1 in the buffered formulation is decreased by 3.3 fold compared to that of the unbuffered formulation.

[3] = format: physicochemical
Text: The poor solubility of Compound A presents some formulation challenges. Its solubility in water is less than 100 ppm, and its solubility in flavor oils (often used to solubilize actives) is less than 0.5%. We have discovered that co-polymers of polyethylene glycol and polypropylene glycol are able to solubilize Compound 1. Fluraflo L4370 (BASF) is able to solubilize 1% Compound 1 (% w/w). It is necessary to stir the solution over low heat to fully solubilize the active. The resulting solution is cloudy, reflecting the nature of the Fluraflo L4370 itself. The solution of 1% Compound 1 in Fluraflo L4370 is diluted 1:1 with 1.5% SLS in water to produce a clear solution, composed of 0.5% AN0128, 0.75% SLS, 50% Fluraflo L4370 in water Similar results are achieved using Fluracare L1220.
We also discovered that Tri-block Co-polymer Surfactant F127 is able to further enhance solubilization of Compound 1. In experimental liquid dentifrice formulas (Table 3), Compound 1 is not completely soluble over time, as evidenced by precipitation and crystallization over time. After the addition of 5% F127, experimental liquid dentifrice formulas (Table 4) remain clear. Therefore, Tri-block Co-polymer Surfactant F127 is able to further solubilize Compound 1 and is suitable for use in formulations.
We further discovered that low molecular weight polyethylene glycol 300 (PEG 300)(Dow Chemical Company) solubilizes 10% Compound 1 (% w/w). It is necessary to stir the solution over low heat to fully solubilize the active. The resulting solution is clear with a slight yellow tint due to the color of Compound 1. […] Therefore, we conclude that solvents containing oligomers and/or polymers of ethylene glycol are capable of solubilizing Compound 1 and are suitable for formulation.
The properties of Compound 1 in conjunction with other excipients are further evaluated by diluting a solution of Compound 1 in PEG 300 into other solvents such as propylene glycol and glycerin at varying ratios. A solution containing 1% Compound 1 in 19% PEG 300 and 80% propylene glycol is clear. […]

biofilm = assay: Biofilm disruption assay; format: cell-based
Experimental: The solution of 0.5% AN0128.0.75% SLS. 50% Fluraflo L4370 in water is then tested in a biofilm disruption assay.
A solution of 2% Compound 1 in PEG 300 is diluted 1:1 with 2% SLS in water to produce a solution composed of 1% Compound 1, 1% SLS, 50% PEG 300 in water which is then tested in a biofilm disruption assay.
The properties of Compound 1 in conjunction with other excipients are further evaluated by diluting a solution of Compound 1 in PEG 300 into other solvents such as propylene glycol and glycerin at varying ratios. A solution containing 1% Compound 1 in 19% PEG 300 and 80% propylene glycol is clear. This solution is then diluted 1:1 with 1% SLS in water to produce a solution composed of 0.5% Compound 1, 0.5% SLS, 9.5% PEG 300 and 40% propylene glycol in water which is then tested in the biofilm disruption assay. The percent reduction achieved versus the negative control is 80%. […] Similar results are achieved with PEG and glycerin.

## Cc1ccc([B-]2(c3ccc(C)c(Cl)c3)OC(=O)c3ncccc3[OH+]2)cc1Cl [Compound 1]
[1]; formulation containing sodium ascorbylphosphate vs without any antioxidants
  decomposition in formulation: significantly reduced
[1]; formulation containing α-tocopherol vs sodium ascorbylphosphate formulation
  decomposition in formulation: even less
[2]
  decrease of slope of the rate of decomposition of Compound 1: 3.3 fold
[3]
  amount solubilized in Fluraflo L4370: 1 % w/w
  amount solubilized in polyethylene glycol 300: 10 % w/w
  solubility in various oils: less than 0.5%
biofilm; 0.5% AN0128, 0.75% SLS, 50% Fluraflo L4370 in water
  percent reduction versus the negative control: 65%
biofilm; 0.5% Compound 1, 0.5% SLS, 9.5% PEG 300 and 40% propylene glycol in water
  percent reduction versus the negative control: 80%
biofilm; 1% Compound 1, 1% SLS, 50% PEG 300 in water
  percent reduction versus the negative control: 76%
